Assays:
Type in all cases: cell-based
[1] = target: T1, Short transient receptor potential channel 5 (Mus musculus, UniProt Q9QX29); assay: Inhibition of mouse TRPC5 expressed in HEK293 cells co-expressing mu-opioid receptor assessed as reduction in DAMGO-induced membrane potential by FMP-2 dye based assay
T1 sequence (Q9QX29 whole entry): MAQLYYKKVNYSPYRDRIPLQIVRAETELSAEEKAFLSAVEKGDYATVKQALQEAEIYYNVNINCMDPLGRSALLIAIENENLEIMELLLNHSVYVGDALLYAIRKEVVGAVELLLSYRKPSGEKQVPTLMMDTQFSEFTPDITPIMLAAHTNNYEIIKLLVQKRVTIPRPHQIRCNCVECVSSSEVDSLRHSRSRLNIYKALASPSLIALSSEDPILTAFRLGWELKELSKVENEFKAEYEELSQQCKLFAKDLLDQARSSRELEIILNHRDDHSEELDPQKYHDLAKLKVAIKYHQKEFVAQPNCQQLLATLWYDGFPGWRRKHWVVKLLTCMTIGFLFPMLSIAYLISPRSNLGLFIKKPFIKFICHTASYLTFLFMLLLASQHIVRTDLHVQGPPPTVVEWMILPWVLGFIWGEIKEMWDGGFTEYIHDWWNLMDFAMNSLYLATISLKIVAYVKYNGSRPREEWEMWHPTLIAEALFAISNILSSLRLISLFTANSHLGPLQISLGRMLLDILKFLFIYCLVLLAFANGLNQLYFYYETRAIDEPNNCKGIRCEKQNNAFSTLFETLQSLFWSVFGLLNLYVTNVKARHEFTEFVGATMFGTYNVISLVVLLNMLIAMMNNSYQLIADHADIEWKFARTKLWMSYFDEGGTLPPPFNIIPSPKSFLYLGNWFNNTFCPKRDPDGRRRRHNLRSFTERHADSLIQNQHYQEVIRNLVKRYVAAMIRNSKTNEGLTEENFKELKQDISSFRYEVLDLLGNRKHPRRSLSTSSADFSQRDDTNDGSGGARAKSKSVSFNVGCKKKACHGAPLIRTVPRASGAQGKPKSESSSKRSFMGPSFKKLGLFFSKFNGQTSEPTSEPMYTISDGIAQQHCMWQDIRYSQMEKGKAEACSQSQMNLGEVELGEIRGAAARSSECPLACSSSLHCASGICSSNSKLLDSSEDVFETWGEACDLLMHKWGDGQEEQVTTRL

[2] = target: T2, Short transient receptor potential channel 3 (Homo sapiens, UniProt Q13507); assay: Inhibition of YFP-tagged human TRPC3 expressed in thapsigargin treated HEK293 cells assessed as reduction in amix-induced calcium level by fluo-4 dye based fluorescence assay
T2 sequence (Q13507 whole entry): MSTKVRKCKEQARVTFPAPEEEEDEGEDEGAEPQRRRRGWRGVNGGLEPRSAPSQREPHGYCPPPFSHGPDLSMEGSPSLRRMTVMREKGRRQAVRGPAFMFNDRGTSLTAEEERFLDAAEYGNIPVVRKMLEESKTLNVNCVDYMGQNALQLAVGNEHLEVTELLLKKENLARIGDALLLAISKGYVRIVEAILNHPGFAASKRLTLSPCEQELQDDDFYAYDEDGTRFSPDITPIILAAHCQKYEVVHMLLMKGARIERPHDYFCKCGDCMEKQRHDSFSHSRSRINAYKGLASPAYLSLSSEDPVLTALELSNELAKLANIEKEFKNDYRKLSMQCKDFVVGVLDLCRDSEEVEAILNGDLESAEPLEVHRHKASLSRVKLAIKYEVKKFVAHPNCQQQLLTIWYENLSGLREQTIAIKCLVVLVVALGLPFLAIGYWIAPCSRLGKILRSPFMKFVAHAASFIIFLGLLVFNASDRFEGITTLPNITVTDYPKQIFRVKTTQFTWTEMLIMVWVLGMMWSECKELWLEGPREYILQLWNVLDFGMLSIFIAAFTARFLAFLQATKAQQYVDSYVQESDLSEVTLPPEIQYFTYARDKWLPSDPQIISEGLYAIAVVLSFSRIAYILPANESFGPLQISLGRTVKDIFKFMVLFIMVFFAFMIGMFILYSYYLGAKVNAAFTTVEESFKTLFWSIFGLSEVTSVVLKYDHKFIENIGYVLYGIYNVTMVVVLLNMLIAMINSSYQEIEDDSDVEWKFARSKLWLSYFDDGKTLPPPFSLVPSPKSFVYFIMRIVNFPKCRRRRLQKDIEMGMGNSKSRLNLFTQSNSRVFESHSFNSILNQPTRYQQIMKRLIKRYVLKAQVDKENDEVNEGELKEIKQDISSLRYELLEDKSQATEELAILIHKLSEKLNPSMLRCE

[3] = target: Heat sensitive channel TRPV3 (Rattus norvegicus, UniProt Q4QYD9); assay: Inhibition of YFP-tagged rat TRPV3 expressed in HEK293 cells assessed as reduction in calcium level by fluo-4 dye based fluorescence assay
[4] = target: Short transient receptor potential channel 7 (Mus musculus, UniProt Q9WVC5); assay: Inhibition of YFP-tagged mouse TRPC7 expressed in thapsigargin treated HEK293 cells assessed as reduction in amix-induced calcium level by fluo-4 dye based fluorescence assay
[5] = species on record: Mus musculus; assay: Selectivity ratio of IC50 for YFP-tagged mouse TRPC7 expressed in thapsigargin treated HEK293 cells to IC50 for mouse TRPC5 expressed in thapsigargin treated HEK293/TREx cells

Chain of Short transient receptor potential channel 7 (Q9WVC5 whole entry): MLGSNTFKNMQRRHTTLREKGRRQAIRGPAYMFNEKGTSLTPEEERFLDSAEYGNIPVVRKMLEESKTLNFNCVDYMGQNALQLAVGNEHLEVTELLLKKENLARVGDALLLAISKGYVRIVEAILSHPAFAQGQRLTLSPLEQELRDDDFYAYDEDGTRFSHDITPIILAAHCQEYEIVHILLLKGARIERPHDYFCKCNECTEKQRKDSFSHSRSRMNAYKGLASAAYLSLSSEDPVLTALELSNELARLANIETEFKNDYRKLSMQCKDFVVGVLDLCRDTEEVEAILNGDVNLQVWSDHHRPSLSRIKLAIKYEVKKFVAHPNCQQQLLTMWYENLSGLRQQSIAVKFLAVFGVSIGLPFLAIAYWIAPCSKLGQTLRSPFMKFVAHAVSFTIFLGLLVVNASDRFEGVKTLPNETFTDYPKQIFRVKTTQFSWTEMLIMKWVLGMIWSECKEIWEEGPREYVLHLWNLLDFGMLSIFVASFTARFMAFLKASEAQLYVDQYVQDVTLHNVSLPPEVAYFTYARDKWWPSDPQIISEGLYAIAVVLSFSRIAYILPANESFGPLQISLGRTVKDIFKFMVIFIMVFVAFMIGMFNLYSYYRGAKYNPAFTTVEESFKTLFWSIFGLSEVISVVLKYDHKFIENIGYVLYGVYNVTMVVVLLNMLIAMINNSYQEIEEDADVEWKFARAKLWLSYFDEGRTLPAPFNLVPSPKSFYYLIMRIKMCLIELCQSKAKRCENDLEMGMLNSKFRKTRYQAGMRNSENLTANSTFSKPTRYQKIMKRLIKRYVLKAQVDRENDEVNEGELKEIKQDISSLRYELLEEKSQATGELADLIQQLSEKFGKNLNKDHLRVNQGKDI
Chain of Heat sensitive channel TRPV3 (Q4QYD9 whole entry): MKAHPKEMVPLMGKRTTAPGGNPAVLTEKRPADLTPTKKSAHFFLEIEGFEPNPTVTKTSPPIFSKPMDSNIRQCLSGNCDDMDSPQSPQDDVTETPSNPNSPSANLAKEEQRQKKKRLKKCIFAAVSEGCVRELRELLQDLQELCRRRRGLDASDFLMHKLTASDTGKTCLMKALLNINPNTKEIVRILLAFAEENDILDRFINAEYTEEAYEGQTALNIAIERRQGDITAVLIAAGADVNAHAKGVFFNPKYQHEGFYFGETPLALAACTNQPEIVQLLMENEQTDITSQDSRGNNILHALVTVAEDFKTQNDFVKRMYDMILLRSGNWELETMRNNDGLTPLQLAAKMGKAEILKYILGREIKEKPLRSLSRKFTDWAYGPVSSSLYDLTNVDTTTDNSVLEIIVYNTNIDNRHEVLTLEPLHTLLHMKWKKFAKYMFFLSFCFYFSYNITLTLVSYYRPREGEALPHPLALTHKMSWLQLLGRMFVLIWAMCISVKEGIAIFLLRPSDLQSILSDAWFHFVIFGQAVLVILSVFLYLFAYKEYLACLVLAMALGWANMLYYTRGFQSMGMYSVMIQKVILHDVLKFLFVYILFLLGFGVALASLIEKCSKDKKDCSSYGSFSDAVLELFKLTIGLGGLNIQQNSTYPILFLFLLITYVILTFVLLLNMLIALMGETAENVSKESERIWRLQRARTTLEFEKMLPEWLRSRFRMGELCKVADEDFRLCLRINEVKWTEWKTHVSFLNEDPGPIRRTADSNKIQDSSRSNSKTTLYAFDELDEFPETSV

| Structure (SMILES) | IC50 [1] | also measured |
| --- | --- | --- |
| c1ccc2[nH]c(NC34CC5CC(CC(C5)C3)C4)nc2c1 | 12.4 µM |  |
| Clc1ccc(Cn2c(CN3CCCC3)nc3ccccc32)cc1 [CLEMIZOLE] |  | IC50 [2]: 9.1 µM; IC50 [3]: > 20 µM; IC50 [4]: 26.5 µM; Ratio IC50 [5]: 10 |
| c1ccc2[nH]c(N3CCCC3)nc2c1 | 8 µM |  |
| CC1CCN(c2nc3ccccc3[nH]2)CC1 | 6.6 µM |  |
| c1ccc2[nH]c(N3CCCCC3)nc2c1 | 11.1 µM |  |

The remaining compounds from weak to strong by IC50 [1], led by results:

| IC50 [1] | Structure (SMILES) | also measured |
| --- | --- | --- |
| 3.5 µM | CC1CCCCN1c1nc2ccccc2[nH]1 (stereo not given) |  |
| 3.1 µM | CC1CCN(c2nc3cc(Cl)ccc3[nH]2)CC1 |  |

Source: ChEMBL document CHEMBL4376804, “Review of Transient Receptor Potential Canonical (TRPC5) Channel Modulators and Diseases” (J Med Chem, 2019)
